Molecules are shown by their SMILES.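 A five-concentration, 48-hour dose response in 96-well plates underlies each endpoint, interpolated linearly between surrounding concentrations. The concentration for 50% growth inhibition is given as GI50. At the TGI there is no net growth.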

Common to all, as to assay: NCI-60 cell line screen, 48 h
In experiment [1] the test system is A549 NSCLC.
Experiment [2] deals with HCT-116 colon.
The subject of experiment [3] is HL-60(TB) leukemia.
The test system of experiment [4] is MALME-3M melanoma.
In experiment [5] the test system is NCI-H23 lung.
In experiment [6] the test system is NCI-H522 lung.
In experiment [7] the test system is NCI/ADR-RES ovarian.
Experiment [8] relates to SK-MEL-28 melanoma.
For experiment [9], the system named is SR leukemia.
Experiment [10] deals with UO-31 renal.

As for `Cc1csc(-c2nnc(Nc3ccc(Oc4ncccc4-c4ccnc(N)n4)cc3)c3ccccc23)c1`, the GI50 in experiment [1] was 1.95 µM; in [2], 1.89 µM; in experiment [3], 2.16 µM; in [4], 1.9 µM; in experiment [5], 2.9 µM; in [6], 5.31 µM. In addition, the GI50 in experiment [7] was 0.355 µM; in experiment [8], 2.1 µM; in [9] it was less than 0.01 µM. The TGI in experiment [1] is greater than 100 µM; in experiment [2], greater than 100 µM; in experiment [3] it was greater than 100 µM; in [4], greater than 100 µM; in experiment [5], greater than 100 µM; in experiment [6], greater than 69.1 µM. Further, the TGI in [7], in [8], in experiment [9] and in [10] was greater than 100 µM in each case.

Turning to `COc1ccc2nc3cc(Cl)ccc3c(NCCNCC(C)O)c2c1` (stereo unspecified), the GI50 in experiment [1] is 1.52 µM; in [2], 0.751 µM; in [3] it was 1.9 µM; in [4], 1.82 µM; in experiment [5], 1.93 µM; in experiment [6], 1.48 µM. Moreover, the GI50 in experiment [7] was 3.08 µM; in [8], 2.06 µM; in [9], 1.09 µM; in experiment [10], 1.73 µM. Also, the TGI stood at 3.16 µM in [1]; 3.17 µM in experiment [2]; 6.05 µM in experiment [3]; 3.68 µM in experiment [4]; 6.16 µM in experiment [5]; 3.1 µM in experiment [6]. Moreover, the TGI in experiment [7] was determined as 14 µM; in experiment [8] it was 4.02 µM; in [9] it was 8.04 µM; in experiment [10], 4.85 µM.

`CN1CC[C@@H](NC(=O)Nc2ccc(C#N)cc2)C[C@@H]1c1nc2ccccc2[nH]1`: the GI50 in experiment [1] was greater than 100 µM; in experiment [2], greater than 87.1 µM; in experiment [3], greater than 100 µM; in experiment [4], greater than 100 µM; in experiment [5] it was greater than 42.3 µM; in [6], greater than 100 µM. The GI50 is greater than 49.8 µM in experiment [7], greater than 100 µM in experiment [8], 48.2 µM in experiment [9] and greater than 78.1 µM in experiment [10]. Further, the TGI in experiment [1] was greater than 100 µM; in experiment [2], greater than 100 µM; in experiment [3] it was greater than 100 µM; in experiment [4], greater than 100 µM; in experiment [5], greater than 60.8 µM; in experiment [6], greater than 100 µM. Besides, the TGI was greater than 86.6 µM in [7], greater than 100 µM in [8], greater than 100 µM in [9] and greater than 100 µM in experiment [10].

Take `Nc1n[nH]c2cc(F)c([C@@H]3Nc4ccc5[nH]ncc5c4[C@H]4C5CCC(C5)[C@@H]34)cc12` (stereo partly specified): the GI50 in [1] was 0.201 µM; in [2] it was 0.174 µM; in [3] it was 0.149 µM; in [4], 1.47 µM; in [5], 0.193 µM; in experiment [6] it was 0.106 µM. Further, the GI50 in [7] was 0.159 µM; in [8] it was 1.37 µM; in experiment [9] it was 0.125 µM; in experiment [10], 0.651 µM. Besides, the TGI in experiment [1] is greater than 50 µM; in experiment [2] it was 1.24 µM; in experiment [3] it was 1.67 µM; in [4], 28.3 µM; in experiment [5], 7.77 µM; in [6], 2.08 µM. For the same compound, the TGI in [7] is 0.746 µM; in experiment [8], 21.9 µM; in experiment [9] it was greater than 50 µM; in experiment [10] it was 30.8 µM.

Take `COc1ccc(C2[C@@H](c3ccccc3)C(=O)N2c2cc(OC)c(OC)c(OC)c2)cc1F` (stereo partly specified): the GI50 in experiment [1] was 0.0368 µM; in experiment [2], 0.0324 µM; in experiment [3], 0.0223 µM; in [4], greater than 100 µM; in experiment [5], 0.0489 µM; in [6] it was 0.0186 µM. Besides, the GI50 is 0.0394 µM in experiment [7], 1.37 µM in [8], 0.0373 µM in [9] and 0.0771 µM in [10]. Moreover, the TGI in experiment [1] was greater than 100 µM; in experiment [2], 10.4 µM; in experiment [3] it was 0.0542 µM; in experiment [4], greater than 100 µM; in experiment [5], greater than 100 µM; in experiment [6], 0.0657 µM. Also, the TGI in [7], in experiment [8], in experiment [9] and in [10] was greater than 100 µM each time.

Turning to `O=C(CCCSc1nc(-c2ccccc2)cc(-c2ccccc2)n1)NO`, the GI50 in experiment [1] was 2.63 µM; in experiment [2] it was 0.657 µM; in experiment [3], 2.48 µM; in [4], 1.95 µM; in [5], 2 µM; in experiment [6], 1.86 µM. The GI50 in experiment [7] was 0.305 µM; in [8] it was 1.95 µM; in experiment [9], 0.38 µM; in [10] it was 0.274 µM. Further, the TGI is 10.1 µM in experiment [1]; 11.7 µM in [2]; 6.39 µM in experiment [3]; 9.71 µM in experiment [4]; 6.11 µM in experiment [5]; 9.51 µM in experiment [6]. In addition, the TGI in [7] turned out to be 10.5 µM; in [8], 7.2 µM; in experiment [9], 20.5 µM; in [10], 1.27 µM.

For the compound `COc1cc(-c2ccc3cc(OC)c(OC)c(OC)c3c2)cc(OC)c1OC`, the GI50 is 7.66 µM in [1]; 11.9 µM in experiment [2]; greater than 100 µM in experiment [3]; 8.75 µM in [4]; greater than 100 µM in experiment [5]; 9.54 µM in experiment [6]. Besides, the GI50 in experiment [7] is 7.91 µM; in [8], greater than 100 µM; in experiment [9] it was 5.19 µM. Moreover, the TGI in experiment [1], in experiment [2], in [3], in [4], in [5] and in experiment [6] was greater than 100 µM in each case. The TGI in [7], in [8] and in [9] was greater than 100 µM each time.

On to `O=C(O)c1nc2nc(Cl)c(Cl)nc2[nH]1`, for which the TGI in experiment [1], in experiment [2], in experiment [3], in experiment [4], in experiment [5] and in [6] was greater than 100 µM each time. For the same compound, the TGI in experiment [7], in experiment [8] and in experiment [9] was greater than 100 µM in each case.

For the origin of these results see PubChem BioAssay (NCI).
